# Assay results taken from PMC10375533, “Preference of Bacterial Rhamnosyltransferases for 6-Deoxysugars Reveals a Strategy To Deplete O-Antigens” (Journal of the American Chemical Society, 2023).
# Entries after “also recorded” stand apart in the source; their conditions may differ. Like-named read-outs stand apart in the source and are kept apart here.
# Legend:
# T. thermophilus RfbF = T. thermophilus RfbF (Thermus thermophilus, UniProt Q72KB9); assay: Isothermal titration calorimetry (ITC) binding measurements with RfbF; conditions: for ΔG / ΔH / ΔS / KD / binding to RfbF by ITC (in words) / Kd / n-value (stoichiometry): ITC; for fold increase in KD relative to dTDP-β-L-Rha: ITC with RfbF, compared to the native donor; for n-value (stoichiometry): ligands with sigmoidal binding curves, SD in parentheses, n = 3
# Chain of T. thermophilus RfbF (Q72KB9 entry or part of it): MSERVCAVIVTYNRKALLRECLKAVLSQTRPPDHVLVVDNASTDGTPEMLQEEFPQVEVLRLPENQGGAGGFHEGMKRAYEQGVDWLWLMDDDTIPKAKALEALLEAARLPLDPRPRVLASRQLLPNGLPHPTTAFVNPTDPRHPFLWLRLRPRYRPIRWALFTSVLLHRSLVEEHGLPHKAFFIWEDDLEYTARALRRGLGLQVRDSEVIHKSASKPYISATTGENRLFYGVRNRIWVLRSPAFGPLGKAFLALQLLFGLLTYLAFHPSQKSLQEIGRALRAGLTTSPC
# E. coli WbbL [1] = target: T1, E. coli WbbL (Escherichia coli, UniProt P36667); assay: In vitro inhibition assay of E. coli WbbL with monosaccharides and compound 2; format: biochemical; conditions: 5 mM inhibitor, 250 µM dTDP-β-L-Rha, 1 mM GlcNAc-PP-undecaprenol, 8 min
# T1 sequence (P36667 whole entry, looked up): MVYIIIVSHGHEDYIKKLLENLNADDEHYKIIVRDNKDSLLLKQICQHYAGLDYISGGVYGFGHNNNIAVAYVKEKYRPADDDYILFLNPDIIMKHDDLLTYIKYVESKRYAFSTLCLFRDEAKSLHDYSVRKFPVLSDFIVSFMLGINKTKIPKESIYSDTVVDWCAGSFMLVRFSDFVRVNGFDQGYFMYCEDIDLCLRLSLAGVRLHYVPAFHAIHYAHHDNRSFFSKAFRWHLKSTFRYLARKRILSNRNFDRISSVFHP
# Description: Primers were purchased from Invitrogen and sequencing was completed by GENEWIZ (Azenta) or EtonBio. Chemicals were purchased from Sigma Aldrich, CarboSynth, Fisher Scientific, and Cayman without further purification. 1H, 13C, and 31P NMR spectra were recorded on a Bruker Avance III 400, 500, or 600 MHz instrument. All spectra were calibrated using residual non-deuterated solvent as an internal reference and processed using MestReNova (authorized to NYU). Gel filtration purification and analyses was performing using at AKTA pure 15 L instrument (UNICORN™ software, GE Healthcare). HRMS analyses were acquired on an Agilent 6224 Accurate-Mass time-of-flight LC/MS (LC-TOF) spectrometer equipped with an electrospray ionization (ESI) source with an autosampler. GraphPad Prism software 9.0 was used for all plotting and data analysis unless otherwise noted. Statistical significance of grouped data was assessed using paired t-tests in Prism. For the IC50 calculation, data were fit in Prism using the equation log(inhibitor) versus response (three parameters): y = bottom + (top-bottom)/(1+10^(X-log IC50)) based on the assumption the Hill slope would be 1, as predicted by ITC results with n ~ 1 for donor ligands. Data was normalized to controls without enzyme and with no inhibitor added. Confidence intervals were calculated based on the standard error. 1M TEAB buffer was prepared by suspending triethylamine (1 mol, 139 mL) in water (700 mL) and passing carbon dioxide (from evaporated dry ice) through the mixture until the pH=7.5. The buffer was diluted to 1L and stored as a stock solution at 4 °C. Prior to use it was diluted to 50 mM in deionized H2O […]
# Methods for protein and cellular biochemistry/bioinformatics used in this study.
# Bioinformatic approach to identify Thermus thermophilus RfbF as a putative glycolipid RT.
# The Carbohydrate-Active Enzymes Database (CAZy.org) was used to identify thermophilic organisms with annotated glycosyltransferases (GTs).11-12 Genes annotated as wbbL have been experimentally shown to encode dTDP-rhamnosyltransferases that transfer L-Rha onto N-acetyl--a-D-glucosamine-1-diphospholipid acceptors.13-14 In Shigella flexneri, the protein encoded by rfbF was noted to carry out the same biochemical activity as WbbL based on genetic and LPS analyses.15-16 Both E. coli WbbL and S. flexneri RfbF belong to the GT2 family. A CAZy search for rfbF and wbbL was performed in the genomes of Gram-negative extreme thermophiles, which […]
# (GenBank: AAS80876.1), which had not yet been biochemically characterized. Protein ANalysis […]
# (§1) thermodynamic values were evaluated using ITCRun software (TA Instruments) and fit with a […]
# Specific activities were determined by modification of the protocol outlined by Li et al. […]
# E. coli WbbL [2] = target: T1, E. coli WbbL; assay: Specific activity assay of rhamnosyltransferase (HPLC, rSAP-coupled), E. coli WbbL membrane fraction; format: biochemical; conditions: native donor dTDP-β-L-Rha, t = 1 h
# Description: as §1
# Specific activity assays for bacterial rhamnosyltransferases from different species.
# Specific activities were determined by modification of the protocol outlined by Li et al.
# Specifically, 0.155 mg/mL RfbF, 0.081 mg/mL E. coli WbbL, or 0.111 mg/mL Mtb WbbL were used to initiate the following reaction mixtures: 25 mM Tris-HCl pH 7.5, 1 mM GlcNAc-PP-lipid, 1 mM donor-substrate, 5 mM MgCl2, 1 U rSAP (1000 U/mL stock solution), 1% (v/v) Triton X-100, 5% (v/v) DMSO (for reactions containing C55, C20, C15 lipid) or MeOH (for reactions containing C35 lipid) in a total volume of 20 µL. […]
# Consumption of NDP-sugar donors was monitored on reverse phase HPLC equipped with a Phenomenex 5 µm, 21.2 x 150 mm, NX-C18 Å Gemini column with solvent A (50 mM TEAB pH 8.0) and solvent B (acetonitrile) using the following linear gradient: 0% B (t = 0-5 min), 0-5% B (t = 5-25 min), 5-90% B (t = 25-35 min). Absorbance at wavelength (l) = 254 nm was monitored.
# Consumption was quantified by integration of dTDP-sugar donors relative to the total amount of thymidine-containing products, which was then subtracted from the starting dTDP-sugar concentration at the t = 0 time point. […] Characterization of each reaction was monitored by scanning in the negative ion mode and analyzed using Agilent MassHunter […]
# [3] = 25 °C, ligand titrated into 110 µM RfbF
# [4] = 25 °C, ligand titrated into 110 µM RfbF, one-site model, spread = SD, triplicate
# [5] = ligand titrated into 110 µM RfbF
# [6] = KD, 25 °C, ligand titrated into 110 µM RfbF, one-site model, spread = SD, triplicate
Compound,ΔG (T. thermophilus RfbF; [3]),ΔH (T. thermophilus RfbF; [3]),ΔS (T. thermophilus RfbF; [3]),binding to RfbF by ITC (in words) (T. thermophilus RfbF; [5]),Kd (T. thermophilus RfbF; [6]) [µM],further results
"CC1OC(OP(=O)(O)OP(=O)(O)OCC2OC(n3cnc4c(=O)[nH]c(N)nc43)C(O)C2O)C(O)C(O)C1O [GDP-β-L-Rha, GDP-β-L-rhamnose]",N/B,N/B,N/B,no measurable; also recorded: no binding,,KD (T. thermophilus RfbF; [4]): N/B
"OC[C@@H]1OC(O)[C@H](O)[C@H](O)[C@H]1O (stereo partly drawn) [L-Man, L-Mannose, reference compound]",,,,,,inhibition of E. coli WbbL (E. coli WbbL [1]): Lack of inhibition
"CC1OC(OP(=O)(O)O)C(O)C(O)C1O [L-Rha-1-phosphate, L-Rhamnose-1-phosphate, reference compound]",,,,,,"Kd (T. thermophilus RfbF; 5-10 mM ligand titrated into 110 µM RfbF, read-out: KD (beyond measurable limit)): > 1000 µM"
N[C@@H](CO)C(=O)O [Ser],,,,,,turnover as noncanonical acceptor with the native donor (E. coli WbbL [2]): no turnover
"CC(=O)NC1C(OP(=O)(O)OP(=O)(O)OCC2OC(n3ccc(=O)[nH]c3=O)C(O)C2O)OC(CO)C(O)C1O [UDP-α-D-GlcNAc, UDP-a-N-acetyl-D-glucosamine, reference compound]",N/B,N/B,N/B,,,"KD (T. thermophilus RfbF; [4]): N/B; binding to RfbF by ITC (in words) (T. thermophilus RfbF; ligand titrated into 110 µM RfbF, listed as UDP-a-D-GlcNAc): no; binding to RfbF by ITC (in words) (T. thermophilus RfbF; ligand titrated into 110 µM RfbF, listed as UDP-α-GlcNAc): did not bind at μM concentrations; turnover as noncanonical acceptor with the native donor (E. coli WbbL [2]; listed as UDP-α-GlcNAc): no turnover; also recorded: not used as an acceptor"
"CC1OC(OP(=O)(O)OP(=O)(O)OCC2OC(n3ccc(=O)[nH]c3=O)C(O)C2O)C(O)C(O)C1O [UDP-β-L-Rha, UDP-β-L-rhamnose]",8.55 (3.65) kcal/mol,-6.72 (1.01) kcal/mol,-51.2 (14.7) cal/mol·K,,36.1 ± 10.7,fold increase in KD relative to dTDP-β-L-Rha (T. thermophilus RfbF): ~4.5 fold; n-value (stoichiometry) (T. thermophilus RfbF): 1.30 (0.28)
"Cc1cn([C@H]2C[C@H](O)[C@@H](COP(=O)(O)OP(=O)(O)O)O2)c(=O)[nH]c1=O [dTDP, reference compound]",,,,no binding profile is observed; also recorded: did not bind,,
"Cc1cn(C2CC(O)C(COP(=O)(O)OP(=O)(O)OC3OC(CO)C(O)C(O)C3O)O2)c(=O)[nH]c1=O [dTDP-α-D-Glc, dTDP-a-D-glucose, reference compound]",,,,,637 ± 96,fold increase in KD relative to dTDP-β-L-Rha (T. thermophilus RfbF; listed as dTDP-α-Glc): ~75 fold
"Cc1cn(C2CC(O)C(COP(=O)(O)OP(=O)(O)OC3OC(C)C(O)C(O)C3O)O2)c(=O)[nH]c1=O [dTDP-α-L-Rha, dTDP-a-L-rhamnose]",N/B,N/B,N/B,no detectable binding,,"KD (T. thermophilus RfbF; [4]): N/B; binding to RfbF by ITC (in words) (T. thermophilus RfbF; ligand titrated into 110 µM RfbF, listed as dTDP-a-L-Rha): no measurable"
"Cc1cn(C2CC(O)C(COP(=O)(O)OP(=O)(O)OC3OC(C)C(O)C(O)C3O)O2)c(=O)[nH]c1=O [dTDP-β-L-6dTal, dTDP-6-deoxy-β-L-talose]",0.415 (2.847) kcal/mol,-8.17 (2.70) kcal/mol,-28.8 (3.7) cal/mol·K,comparable affinity as the native substrate,16.5,n-value (stoichiometry) (T. thermophilus RfbF): 0.934 (0.028)
"Cc1cn(C2CC(O)C(COP(=O)(O)OP(=O)(O)OC3OC(C)C(O)C(O)C3O)O2)c(=O)[nH]c1=O [dTDP-β-L-Fuc, dTDP-β-L-fucose]",,,,,126 ± 1,fold increase in KD relative to dTDP-β-L-Rha (T. thermophilus RfbF): ~15 fold
"Cc1cn(C2CC(O)C(COP(=O)(O)OP(=O)(O)OC3OC(CO)C(O)C(O)C3O)O2)c(=O)[nH]c1=O [dTDP-β-L-Man, dTDP-β-L-mannose]",,,,,496 ± 56,fold increase in KD relative to dTDP-β-L-Rha (T. thermophilus RfbF): 60 fold
L-rhamnose [reference compound],,,,,,inhibition of E. coli WbbL (E. coli WbbL [1]): 38%
